Experimental data from ChEMBL document CHEMBL1143693, “Cancer chemopreventive effects of cycloartane-type and related triterpenoids in in vitro and in vivo models” (J Nat Prod, 2007).

Key:
Human gammaherpesvirus 4 [1] = assay: Inhibition of TPA-induced Epstein-Barr virus early antigen activation assessed as EBV-EA induction in Raji cells at 320 nM after 48 hrs relative to TPA; values are per cent of control; conditions: human gammaherpesvirus 4, Raji
Human gammaherpesvirus 4 [2] = assay: Inhibition of TPA-induced Epstein-Barr virus early antigen activation in Raji cells after 48 hrs; format: functional, organism-based; conditions: human gammaherpesvirus 4, Raji
Raji = assay: Cell viability of Raji cells at 320 nM; format: functional, Homo sapiens
Human gammaherpesvirus 4 [3] = assay: Inhibition of TPA-induced Epstein-Barr virus early antigen activation assessed as EBV-EA induction in Raji cells at 0.32 nM after 48 hrs relative to TPA; values are per cent of control; conditions: human gammaherpesvirus 4, Raji
Human gammaherpesvirus 4 [4] = assay: Inhibition of TPA-induced Epstein-Barr virus early antigen activation assessed as EBV-EA induction in Raji cells at 32 nM after 48 hrs relative to TPA; values are per cent of control; conditions: human gammaherpesvirus 4, Raji
Human gammaherpesvirus 4 [5] = assay: Inhibition of TPA-induced Epstein-Barr virus early antigen activation assessed as EBV-EA induction in Raji cells at 3.2 nM after 48 hrs relative to TPA; values are per cent of control; conditions: human gammaherpesvirus 4, Raji
[6] = Scavenging activity against NO generation in human Chang liver cells assessed as inhibition of NOR1-activation at 350 nM relative to NOR1; format: functional

IC50 (Human gammaherpesvirus 4 [2]) [nM] | Structure (SMILES) | level, % of control at 0.32 µM (Human gammaherpesvirus 4 [1]) [%] | Activity (Raji) [%] | level, % of control at 0.00032 µM (Human gammaherpesvirus 4 [3]) [%] | level, % of control at 0.032 µM (Human gammaherpesvirus 4 [4]) [%] | level, % of control at 0.0032 µM (Human gammaherpesvirus 4 [5]) [%] | Activity [6]
15.4 | CC1=C(/C=C/C(C)=C/C=C/C(C)=C/C(=O)O)C(C)(C)CCC1 [TRETINOIN] | 21.6 | 60 | 100 | 49.3 | 76.3 | 
7.4 | C[C@H](CCC(O)C(C)(C)O)[C@H]1CC[C@@]2(C)[C@@H]3CC[C@H]4C(C)(C)C(=O)CC[C@@]45C[C@@]35CC[C@]12C (stereo not given in full) | 0 | 70 | 88.4 | 19.1 | 66.8 | 2
10.2 | C=C(CC[C@@H](C)[C@H]1CC[C@@]2(C)[C@@H]3CC[C@H]4[C@@H](C)C(=O)CC[C@@]45C[C@@]35CC[C@]12C)C(C)C | 0 | 70 | 95.1 | 32.7 | 73.6 | 1.5
9.9 | C=C(C)[C@@H](C)CC[C@@H](C)[C@H]1CC[C@@]2(C)[C@@H]3CC[C@H]4[C@@H](C)C(=O)CC[C@@]45C[C@@]35CC[C@]12C | 0 | 70 | 94.6 | 32.4 | 72.7 | 1.8
9 | CC(C)=CCC[C@@H](C)C1=CC[C@@]2(C)[C@@H]3CC[C@H]4C(C)(C)[C@@H](O)CC[C@@]45C[C@@]35CC[C@]12C [CIMICIFUGENOL] | 0 | 70 | 93.8 | 26.8 | 72.6 | 1.8
10.2 | C=C(CC[C@@H](C)[C@H]1CC[C@@]2(C)[C@@H]3CC[C@H]4CC(=O)CC[C@@]45C[C@@]35CC[C@]12C)C(C)C | 0 | 70 | 95.6 | 33.2 | 73.8 | 1.5
15.5 | C=C(CC[C@@H](C)[C@H]1CC[C@@]2(C)[C@@H]3CC[C@H]4[C@H](C)[C@@H](OC(=O)/C=C/c5ccc(O)c(OC)c5)CC[C@@]45C[C@@]35CC[C@]12C)C(C)C [CYCLOEUCALENOL FERULATE] | 14.2 | 70 | 100 | 53.2 | 81.5 | 1.5
10 | CC(C)C(C)CC[C@@H](C)[C@H]1CC[C@@]2(C)[C@@H]3CC[C@H]4[C@H](C)[C@@H](O)CC[C@@]45C[C@@]35CC[C@]12C (stereo not given in full) | 0 | 70 | 96.8 | 31.8 | 73.4 | 1.6
9.5 | COC(C)(C)[C@@H](O)CC[C@@H](C)[C@H]1CC[C@@]2(C)[C@@H]3CC[C@H]4C(C)(C)[C@@H](O)CC[C@@]45C[C@@]35CC[C@]12C | 0 | 70 | 95.9 | 30.7 | 74.5 | 1.8
8.6 | C=C(C)C(O)CC[C@@H](C)[C@H]1CC[C@@]2(C)[C@@H]3CC[C@H]4C(C)(C)C(=O)CC[C@@]45C[C@@]35CC[C@]12C (stereo not given in full) | 0 | 70 | 91.2 | 21.1 | 69.7 | 2
10.1 | CC(C)CCC[C@@H](C)C1=CC[C@@]2(C)[C@@H]3CC[C@H]4C(C)(C)[C@@H](O)CC[C@@]45C[C@@]35CC[C@]12C | 0 | 70 | 96.5 | 32.1 | 72.6 | 1.6
 | CC1(C)[C@@H](O[C@H]2O[C@H](C(=O)O)[C@@H](O)[C@H](O)[C@H]2O[C@@H]2O[C@H](C(=O)O)[C@@H](O)[C@H](O)[C@H]2O)CC[C@]2(C)[C@H]3C(=O)C=C4[C@@H]5C[C@@](C)(C(=O)O)CC[C@]5(C)CC[C@@]4(C)[C@]3(C)CC[C@@H]12 [GLYCYRRHIZIN] |  |  |  |  |  | 2.2
10.2 | COc1cc(/C=C/C(=O)CC(=O)/C=C/c2ccc(O)c(OC)c2)ccc1O [CURCUMIN] | 0 | 60 | 100 | 22.8 | 81.7 | 
12.7 | CC1=C(/C=C/C(C)=C/C=C/C(C)=C/C=C/C=C(C)/C=C/C=C(C)/C=C/C2=C(C)CCCC2(C)C)C(C)(C)CCC1 [BETA CAROTENE] | 8.6 | 70 | 100 | 34.2 | 82.1 | 
 | CC1(C)N([O])C(c2ccc(C(=O)O)cc2)=[N+]([O-])C1(C)C |  |  |  |  |  | 8

Structure (SMILES) | IC50 (Human gammaherpesvirus 4 [2]) [nM] | level, % of control at 0.32 µM (Human gammaherpesvirus 4 [1]) [%] | Activity (Raji) [%] | level, % of control at 0.00032 µM (Human gammaherpesvirus 4 [3]) [%] | level, % of control at 0.032 µM (Human gammaherpesvirus 4 [4]) [%] | level, % of control at 0.0032 µM (Human gammaherpesvirus 4 [5]) [%] | Activity [6]
CC(=O)O[C@H]1CC[C@]23C[C@]24CC[C@]2(C)[C@@H]([C@H](C)CCC=C(C)C)CC[C@@]2(C)[C@@H]4CC[C@H]3C1(C)C [CYCLOARTENOL ACETATE] | 10.1 | 0 | 70 | 96.9 | 32.3 | 73.1 | 1.8
C=C(CC[C@@H](C)[C@H]1CC[C@@]2(C)[C@@H]3CC[C@H]4C(C)(C)[C@@H](OC(=O)/C=C/c5ccc(O)c(OC)c5)CC[C@@]45C[C@@]35CC[C@]12C)C(C)C | 15.8 | 17.6 | 70 | 100 | 54.7 | 82 | 1.8
COc1cc(/C=C/C(=O)O[C@H]2CC[C@]34C[C@]35CC[C@]3(C)[C@@H]([C@H](C)CCC=C(C)C)CC[C@@]3(C)[C@@H]5CC[C@H]4C2(C)C)ccc1O [GAMMA ORYZANOL] | 15.9 | 19.7 | 70 | 100 | 56 | 84.7 | 1.5
C=C(C)[C@H](O)CC[C@@H](C)[C@H]1CC[C@@]2(C)[C@@H]3CC[C@H]4C(C)(C)[C@@H](O)CC[C@@]45C[C@@]35CC[C@]12C | 6.4 | 0 | 70 | 84.4 | 15 | 57.8 | 2
C=C(CC[C@@H](C)[C@H]1CC[C@@]2(C)[C@@H]3CC[C@H]4C(C)(C)[C@@H](O)CC[C@@]45C[C@@]35CC[C@]12C)C(C)C | 8.8 | 0 | 70 | 91.4 | 23.2 | 68.1 | 1.7
